According to patent publication US10519504B2, “Methods for treatment of oncological disorders using epimetabolic shifters, multidimensional intracellular molecules, or environmental influencers” (Berg LLC, priority 2009, dated 2019):

How the values were obtained:
[1] = tested on: Pyruvate Kinase M2 (PKM2); experiment: Western blot, Pyruvate Kinase M2 levels; assay type: cell-based, human; conditions: cancer cells tested
Procedure: The samples were processed and run on a 4-12% Bis-Tris Novex NuPAGE gel as described above. The gels were run, transferred and stained essentially as described above.
The lactate dehydrogenase blots were stripped by incubating for 30 minutes with methanol, followed by two 10 minute washes with TBS-T, then 30 minutes of incubation with Stripping buffer at 50 deg C., and followed by two washes with 100 ml or more of TBS-T for 30′ each. The 2 blots were scanned in laser scanner to check for complete stripping. The blots were activated with methanol for 5 seconds, washed with water for 5 minutes, and TBST for 15 minutes. The blots were blocked for 1 hour with 5% blocking reagent in TBS-T at room temperature and then washed 3 times with TBS-T (1X−15′; 2X5′ each) and probed with the rabbit polyclonal antibody for Pyruvate Kinase M2 in 5% BSA (NOVUS BIOLOGICALS catalog #H00005315-D01P) at 1:500 dilution overnight at 4 deg C. with shaking. After the overnight incubation with primary antibody for Pyruvate Kinase M2, the membranes were washed 3 times with TBS-T (1X−15′; 2X5′ each) and probed with the secondary antibody (antirabbit; 1:10,000 dilution) for 1 h on the orbital tilting shaker at room temperature. […]

[2] = tested on: Succinate Dehydrogenase (SDH) Subunit B; experiment: Western blot, Succinate Dehydrogenase B in mitochondrial preparations; assay type: cell-based; conditions: mitochondrial preparations of cancer cells
Procedure: The above blots were stripped by incubating for 30 minutes with methanol, followed by two 10 minute washes with TBS-T, then 30 minutes of incubation with Stripping buffer at 50 deg C., and followed by two washes with 100 ml or more of TBS-T for 30′ each. The blots were scanned in laser scanner to check for complete stripping. The blots were activated with methanol for 5 seconds, washed with water for 5 minutes, and TBST for 15 minutes. The blots were blocked for 1 hour with 5% blocking reagent in TBS-T at room temperature and then washed 3 times with TBS-T (1X−15′; 2X5′ each) and probed with the primary antibody for PKM2, SDHB or SDHC in 5% BSA in TBS-T by incubation overnight at 4 deg C. with gentle shaking. The primary antibody for SDHC (ABNOVA H00006391-M12; antimouse) was at 1:500 dilution. The primary antibody for SDHB was from Abcam ab4714-200; antimouse; at 1:1000 dilution. The primary antibody for Pyruvate Kinase M2 (PKM2) was from Novus Biologicals H00005315-D0IP; antirabbit; at 1:500 dilution. After incubation with primary antibodies, the membranes were washed 3 times with TBS-T (1X−15′; 2X5′ each) and probed with the secondary antibody (SDHB & C antimouse; and PKM2 antirabbit; 1:10,000 dilution) for 1 h on the orbital tilting shaker at room temperature. […]

SKBr3 = experiment: Nexin assay for apoptosis (Annexin-V-PE/7-AAD, flow cytometry); assay type: cell-based, human; conditions: 50 μM or 100 μM Q10, 24 hours
Source text: The 7AAD dye will enter into cells with permeabilized cell membranes; primarily those cells that are in late apoptosis. Annexin-V-PE is a dye that binds to Phosphotidyl serine, which is exposed on the outer surface of the plasma membrane in early apoptotic cells. The Nexin reagent thus can be used to differentiate between different populations of apoptotic cells in a flow cytometer.

[3] = tested on: Pancreatic Cancer Cells (PaCa2); experiment: Real-time PCR Apoptosis Array; assay type: cell-based
Procedure: Experiments were carried out essentially as described above.

## COC1=C(OC)C(=O)C(C/C=C(\C)CC/C=C(\C)CC/C=C(\C)CC/C=C(\C)CC/C=C(\C)CC/C=C(\C)CC/C=C(\C)CC/C=C(\C)CC/C=C(\C)CCC=C(C)C)=C(C)C1=O [Q10, Coenzyme Q10]
[1]
  PKM2 expression: dose-dependent decrease in the PKM2 expression
[2]
  SDH protein levels: increase SDH protein levels
SKBr3
  early and late apoptosis: did not show any significant increases of early and late apoptosis
[3]; 100 uM Q10
  apoptosis array genes (ABL1, AKT1, Bcl2L1 ... TNFSF10 as listed): modulated by Q10 treatment
[3]; 100 μM Q10, genes: CASP1, CASP6, TNF, TNFSF10, ABL1, AKT1, BclAF1, Bcl2L1, CASP2, CIDEA, FADD, LTA, TNFSF10A
  genes from the apoptosis array whose expression is regulated: A list of genes from the apoptosis array whose expression is regulated
